Data on one substance can be found in patent publication US20220409696A1, “Heparin-Associated Polypeptides and Uses Thereof” (Juvena Therapeutics, Inc., priority 2021, published 2022).

In assay [1] the test system is human myoblast cells. As to the kind of experiment: Human myoblast differentiation (% eMyHC area), IGF2 and/or sodium butyrate. The following applies: IGF2 0.015 ug/mL, 96 h (FIG. 3B/3C). The assay is classed as cell-based. The procedure:
Human myoblast cells were treated with either PBS (vehicle), IGF2 (15 ng/mL), sodium butyrate, or IGF2 and sodium butyrate. Fresh media was added every 24 hours. After 96 hours, cells were pulsed for 2-5 hours with EdU (30 uM), ethanol fixed, stained with Hoescht 3342, immunostained for proliferation—as measured by the percent of cells staining positive for EdU (% EdU)-, and immunostained for differentiation—as measured by the increase in cellular area staining positive for embryonic myosin heavy chain (% eMyHC) relative to the negative controls, which received media and vehicle only. The total area of eMyHc positive cells was analyzed, and treated cells were compared to cells treated with the vehicle alone. […] Significance was determined by a p-value less than 0.05 by the one-way ANOVA Tukey Honest Significant Difference test.
FIG. 3C Bar graph quantitation of % Area eMyHC+ human myoblast in response to indicated treatment compared to IGF2 (15 ng/mL). Myoblast were cultured 96 h in the presence of IGF2 at indicated dose. Fresh media and IGF2 was added every 24 h.
Human myoblast cells were treated with either PBS (vehicle), IGF2 (15 ng/mL), sodium butyrate, or IGF2 and sodium butyrate. Fresh media was added every 24 hours. After 48 hours, cells were pulsed for 2-5 hours with EdU (30 uM), ethanol fixed, stained with Hoescht 3342, immunostained for proliferation […] as measured by the percent of cells staining positive for EdU (% EdU)-, and immunostained for differentiation—as measured by the increase in cellular area staining positive for embryonic myosin heavy chain (% eMyHC) relative to the negative controls, which received media and vehicle only.
Significance was determined by a p-value less than 0.05 by the one-way ANOVA Tukey Honest Significant Difference test.

Assay [2] deals with DM1 human myoblast cells. As to the kind of experiment: Fusion (% eMyHC area) of DM1 human myoblast. In kind it is cell-based. As to conditions: 96 h for fusion. The procedure:
FIG. 7A Bar graph of % EdU+ human myoblast (person) and FIG. 7B % area MyHC in response to IGF2. Myoblast were cultured 72 h for proliferation and 96 h for fusion in the presence of indicated factor. Mean∓S.D. Mean∓SD. Significant p-values (EdU: Vehicle˜IGF2: 6.8E-3, % eMyHC Area: Vehicle˜IGF2: 1.9E-4) (*p<0.05 by Students Two-Tailed T-test, n=3−6).
IGF2 was tested individually for its ability to promote proliferation and/or fusion of human muscle progenitor cells from an individual with myotonic dystrophy type 1 (hMD)—a muscular dystrophy caused by mutations in the DMPK1 gene. […] After 72 or 96 hours, cells were pulsed for 2-5 hours with EdU (30 uM), ethanol fixed, stained with Hoescht 3342, immunostained for proliferation—as measured by the percent of cells staining positive for EdU (% EdU)-, and immunostained for differentiation—as measured by the increase in cellular area staining positive for embryonic myosin heavy chain (% eMyHC) relative to the negative controls, which received media and vehicle only. Wells were imaged on a Keyence BZ-100 at 4×, the images quantified in Cell Profiler, and the statistics were computed in R. Additionally, RNA was extracted from myoblast and select transcript abundances quantified by qPCR. […]

Assay [3] deals with Aged human myoblasts. As to the kind of experiment: Myogenic transcription factor expression in aged human myoblasts. In kind it is cell-based. The following applies: compared to fusion media. How it is done: RNA was isolated from each well (RNeasy Mini Kit, Qiagen) and cDNA was obtained by reverse-transcription (High Capacity Reverse Transcription Kit, Thermo Fisher Scientific). Real-time quantitative PCR was performed using QuantStudio3 (Thermo Fisher).
Aged human myoblasts were cultured in well plates. […] Cells that had been cultured with IGF2 had increases in levels of MYOG at 48 hours and levels of MYOD at 72 hours.

Assay [4] relates to 10 week old dystrophic mice (mdx). As to the kind of experiment: D2-mdx Duchenne's muscular dystrophy model, 10 week old mice. In kind it is in vivo. The following applies: 150 ug/kg with 1.2 g/kg sodium butyrate subcutaneously every 24 hours, 14 days. How it is done:
Between 3-6 weeks old, the skeletal muscle of mdx mice undergoes severe necrosis followed by an increase in the activation of satellite cells to promote muscle regeneration. Treatment with IGF2 fusion polypeptide described herein can improve the regeneration process and therefore muscle health. Mice were fed ad libitum and housed under controlled conditions of lighting (12-hour light/12-hour dark) and temperature (22-24° C.). Mice were allowed to acclimate for 3 days prior to the initiation of the experiment. During the acclimation period, the weight, forelimb and both limb grip strength as well as in vivo tetanic force were assessed to determine the baseline strength of each mouse. 10 week old dystrophic mice (mdx) were injected with the IGF2 fusion polypeptide with sodium butyrate subcutaneously for 14 days. At day 7, forelimb and both grip strength are measured as described in Example 4. BrdU was injected on days 12, 13 and 14. On days 13, 14 and 15, forelimb and both limb grip strength and in vivo tetanic force were tested, and an endurance test to determine max distance and max speed was performed using methods described in Example 4.
Mice were euthanized. The right tibialis anterior and gastrocnemius were collected, immersed in Tissue-TEK OCT and then flash frozen in a chilled isopentane bath precooled in liquid nitrogen and stored at −80° C. Tissue was sectioned and stained for Laminin to determine the cross sectional area (CSA) of muscle fibers, for eMyHC to measure new fiber formation and for BrdU to assess the proliferation rate. The left anterior tibialis and gastrocnemius were collected and flash frozen in liquid nitrogen for molecular analysis that include qPCR and western blot.

Assay [5] addresses Insulin Degrading Enzyme (IDE) (Homo sapiens, UniProt P14735). As to conditions: Malito et al. Cell Mol Life Sci. 2008; read-out: affinity of IDE for IGF2 as a substrate; cited from earlier work.

For the substance “IGF2: Human IGF2 polypeptide, amino acids 25 to 91 of SEQ ID NO. 32 (i.e. SEQ ID NO. 29)”, the “% eMyHC” value in assay [1] is recorded as 10.843%. For the same substance, the “% eMyHC area” value in assay [2] is given as 5.49%. In assay [3] (48 h), the “MYF5 −48 h, fold change” value amounted to 0.409 and the “MYOD1 −48 h, fold change” value amounted to 0.519. Also, in assay [3] (72 h), the “MYF5 −72h, fold change” value was 0.708 and the “MYOG −72 h, fold change” value was found to be 0.018. For the same substance, in assay [4], the bothlimb grip strength result is reported as “effective at improving”, the forelimb grip strength entry is on record as “effective at improving”, the muscle weight result is “effective at improving” and the total work entry is given as “effective at improving”. In addition, in assay [4], the treadmill running distance entry is listed as “effective at improving” and the “treadmill running time to exhaustion” value was “effective at improving”. Further, the Kd in assay [5] is about 100 nM.
